Assay [1] has as its target T1, PfGrp170 (Plasmodium falciparum, UniProt C0H5H0).
T1 sequence (C0H5H0 20-932): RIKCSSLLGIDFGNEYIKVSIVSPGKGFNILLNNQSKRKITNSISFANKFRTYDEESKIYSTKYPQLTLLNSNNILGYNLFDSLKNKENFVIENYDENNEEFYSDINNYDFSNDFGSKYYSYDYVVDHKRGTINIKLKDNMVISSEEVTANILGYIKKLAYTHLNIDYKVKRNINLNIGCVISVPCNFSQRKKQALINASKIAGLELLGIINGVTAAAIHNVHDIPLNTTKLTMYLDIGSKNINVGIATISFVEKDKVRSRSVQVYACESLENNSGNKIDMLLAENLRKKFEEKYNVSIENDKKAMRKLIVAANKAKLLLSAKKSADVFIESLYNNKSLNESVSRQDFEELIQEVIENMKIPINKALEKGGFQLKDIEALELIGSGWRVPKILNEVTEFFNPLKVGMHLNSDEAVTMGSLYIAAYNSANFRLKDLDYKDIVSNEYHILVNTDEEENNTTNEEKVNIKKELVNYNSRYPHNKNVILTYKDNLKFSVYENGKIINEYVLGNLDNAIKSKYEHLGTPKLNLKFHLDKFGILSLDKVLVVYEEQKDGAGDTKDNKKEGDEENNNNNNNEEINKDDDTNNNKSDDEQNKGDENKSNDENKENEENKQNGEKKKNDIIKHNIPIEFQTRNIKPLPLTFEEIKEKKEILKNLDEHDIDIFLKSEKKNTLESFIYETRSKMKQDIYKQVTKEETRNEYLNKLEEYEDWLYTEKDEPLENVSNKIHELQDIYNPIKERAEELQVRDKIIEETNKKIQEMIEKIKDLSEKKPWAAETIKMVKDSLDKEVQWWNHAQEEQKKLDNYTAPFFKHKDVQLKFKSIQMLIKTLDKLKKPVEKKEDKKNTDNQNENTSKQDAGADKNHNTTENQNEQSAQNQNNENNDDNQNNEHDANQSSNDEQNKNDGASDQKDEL
As to the kind of experiment: biochemical.

The next assay deals with PfGrp94 (Plasmodium falciparum, UniProt Q8I0V4). The conditions noted are these: basal ATPase; used as control protein.
Assay [2] deals with T1, PfGrp170. As to the kind of experiment: suppression of heat-induced MDH aggregation, light scattering […] nm. The note with it: 100 µM NECA, 1 µM PfGrp170, MDH (pig heart), 20 mM Tris-HCl pH 7.5, 200 mM NaCl, 5 mM MgCl2, 48 °C; inhibitor of chaperone function. The format is biochemical.

Structures are written as SMILES.

Chain of PfGrp94 (Q8I0V4 29-821): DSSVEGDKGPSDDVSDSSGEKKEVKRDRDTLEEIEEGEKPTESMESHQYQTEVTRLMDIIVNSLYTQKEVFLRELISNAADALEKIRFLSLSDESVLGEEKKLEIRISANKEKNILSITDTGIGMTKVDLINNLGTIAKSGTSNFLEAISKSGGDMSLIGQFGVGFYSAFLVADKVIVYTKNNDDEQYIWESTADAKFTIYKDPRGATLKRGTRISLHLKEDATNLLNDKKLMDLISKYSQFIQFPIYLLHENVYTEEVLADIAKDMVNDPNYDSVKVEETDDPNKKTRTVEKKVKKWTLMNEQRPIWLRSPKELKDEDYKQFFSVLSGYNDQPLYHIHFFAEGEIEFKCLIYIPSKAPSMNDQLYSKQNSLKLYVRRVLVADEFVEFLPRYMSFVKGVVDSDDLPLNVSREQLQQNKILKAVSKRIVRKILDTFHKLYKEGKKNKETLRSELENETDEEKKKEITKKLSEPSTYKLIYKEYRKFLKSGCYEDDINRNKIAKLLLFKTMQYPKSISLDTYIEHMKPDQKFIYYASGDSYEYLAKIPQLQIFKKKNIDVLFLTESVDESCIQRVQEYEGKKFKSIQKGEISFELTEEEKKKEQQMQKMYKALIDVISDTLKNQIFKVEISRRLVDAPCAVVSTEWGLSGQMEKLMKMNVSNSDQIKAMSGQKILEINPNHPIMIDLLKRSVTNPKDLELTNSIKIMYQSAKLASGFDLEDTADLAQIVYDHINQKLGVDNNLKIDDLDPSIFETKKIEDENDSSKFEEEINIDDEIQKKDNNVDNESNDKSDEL

By Kd is commonly meant the equilibrium constant for the complex coming apart. Low readings indicate tighter binding, high ones weaker binding. At PfGrp170 [1], `Nc1ncnc2c1ncn2[C@@H]1O[C@H](COP(=O)(O)OP(=O)(O)OP(=O)(O)O)[C@@H](O)[C@H]1O` [ATP] registered a Kd of 143 ± 15.6 nM. The ATPase activity result at PfGrp94 is “The basal ATPase activity of PfGrp170 and PfGrp94 as control”.

`CCNC(=O)[C@H]1O[C@@H](n2cnc3c(N)ncnc32)[C@H](O)[C@@H]1O` [NECA]: the relative aggregation entry on PfGrp170 [2] is reported as “higher concentrations of NECA abrogated the chaperone function of PfGrp170”.

Values taken from PMC12307583 (Scientific Reports, 2025).
